{
  "source": "paper PMC8073907",
  "about": "“Peptide targeting of lysophosphatidylinositol-sensing GPR55 for osteoclastogenesis tuning” (Cell Communication and Signaling : CCS, 2021)",
  "key": {"human GPR55 [1]": {"target": "human GPR55", "conditions": "ref [38]; read-out: affinity towards human GPR55; cited from earlier work"}, "[2]": {"tested_on": "GPR55-silenced HeLa cells", "assay": "LPI-induced ERK1/2 and p38 phosphorylation in shGPR55-HeLa clones (Western blot)", "type": "cell-based, human", "conditions": "10 µM soybean LPI, or 1 µM ionomycin 5 min", "experimental": "For stable interference of GPR55, HeLa cells were plated at 1.5 × 10^5 cells/well in six-well plates in growth medium without antibiotics, and 24 h later, the cells were transfected with 1.7 µg/well OmicsLink short hairpin (sh)RNA expression clone CSHCTR001-CU6 (shCTRL) or clone HSH022476-3-CU6 (shGPR55) from GeneCopoeia (Rockville, MD, USA), using Lipofectamine 2000, according the manufacturer instructions. Forty-eight hours after transfection, HeLa clones stably expressing shRNAs were selected in growth medium containing 0.3 µg/mL puromycin. The efficiency of interference was monitored by real-time PCR using the primers listed in the Additional file 1: Table S1. HPRT1 was followed as a housekeeping gene.\nTwenty-four hours after transfection (HEK293T, HeLa cells or clones) or 72 h after interference (RAW264.7 cells), the cells were washed twice with HBSS^++, serum deprived (HEK293T cells for 4 h in DMEM; HeLa cells and clones for 2 h in MEM plus 2 mM glutamine and 25 mM HEPES; RAW264.7 cells for 2 h in DMEM), washed once again with HBSS^++, incubated in stimulation buffer (HBSS^++ with 10 mM HEPES, 0.4% faf-BSA for HEK293T cells; HBSS^++ with 25 mM HEPES and 0.01% faf-BSA for HeLa cells, clones, and RAW264.7 cells) in the absence or presence of stimuli, at 37 °C for the indicated times. Incubations were terminated by washing the cells twice with cold HBSS^++, and the analyses were performed as reported below.\nCell lysates were obtained by scraping the cells into phospho-lysis buffer: 50 mM Tris–HCl, pH 7.5, 100 mM NaCl, 5 mM EDTA, 1% Triton X-100, 50 mM NaF, 40 mM β-glycerophosphate, 200 µM sodium orthovanadate, plus protease and phosphatase inhibitors (Roche). […]\nProtein lysates were subjected to SDS-PAGE, and after electrophoresis, the proteins were transferred to a nitrocellulose membrane (PerkinElmer Life Science, Boston, MA, USA). […] The membranes were then washed twice with T-TBS and once with TBS for 5 min, and the signals were detected by ECL (Amersham Pharmacia, Piscataway, NJ, USA). […]"}, "[3]": {"tested_on": "EHEB and DeFew cells (two human B-lymphoblastoid cell lines)", "conditions": "ref [38], cited from earlier work"}, "RAW264.7 cells [4]": {"tested_on": "RAW264.7 cells", "assay": "Osteoclast syncytium formation (nuclei/cell)", "type": "cell-based, murine", "conditions": "150 nM (0.2 µg/mL) peptide, 72 h RANKL", "experimental": "(§1) For transient interference of Gpr55, RAW264.7 cells were plated at 6 × 10^5 cells/well in six-well plates in growth medium without antibiotics. Twenty-four hours later, the cells were transfected with 250 pmol/well non-targeting small-interfering (si)RNAs (si-NT; siGENOME siRNA Pool #2; D-001206-14; Dharmacon, Chicago, IL, USA) or Gpr55-specific siRNAs (si-GPR55; siGENOME mouse GPR55 SMART pool; M-043590-01; Dharmacon) using Lipofectamine LTX and Plus Reagent, according to the manufacturer instructions. Twenty-four hours later, the cells were plated for the different assays or for RNA extraction. The efficiency of interference was monitored by real-time PCR after 72 h of interference, using the primers listed in the Additional file 1: Table S1. β2-microglobulin was followed as a housekeeping gene.\nFor the evaluation of osteoclast syncytium formation, the nuclei of multinucleated cells were counted in a blinded manner using a 63 × objective, moving across the coverslip in the vertical and horizontal directions.\nFor the osteoclastogenesis in-vitro assay, RAW264.7 cells were plated in differentiation medium (α-MEM with 10% heat-inactivated FBS, 2 mM L-glutamine, 100 U/mL penicillin, and 100 ug/mL streptomycin) at a density of 5 × 10^3 cells/well in 24-well plates on coverslips for morphological analysis, or at 2 × 10^4 cells/well in six-well plates for RNA extraction. […]"}, "ssGPR55-K80A": {"tested_on": "ssGPR55-K80A", "assay": "GPR55-internalisation assay, K80A mutant (FACS)", "type": "cell-based, human", "conditions": "data not shown", "text": "The construct of haemagglutinin (HA)-tagged human GPR55 in pcDNA3 (HA-GPR55) was a gift from Prof. K. Mackie, Indiana University, Bloomington, IN, USA [39], while the construct ss-3 × HA-GPR55 in pcDNA3.1 (ssGPR55) with a triple HA tag at the N-terminus and an optimised signal sequence (ss, derived from amino acids 1–33 of the human growth hormone: […]) for efficient surface expression was from Prof. A. Irving, Dundee University, UK [40]. For both constructs, mutations were introduced by site-directed mutagenesis using QuickChange kits (Stratagene, La Jolla, CA, USA), according to the manufacturer instructions. The primers for the K80A mutation were 5′-[…]-3′ and 5′-[…]-3′ (Tm, 70.6 °C), and for Q87A were 5′-[…]-3′ and 5′-[…]-3′ (Tm, 73.1 °C).\nHeLa cells were plated at 1.5 × 10^5 cells/well in six-well plates in their growth medium without antibiotics. […]\nFor the GPR55-internalisation assay, after stimulation, the HeLa cells were washed twice with cold HBSS^++, stained while adhered with the monoclonal anti-HA antibody (1:1000) in PBS plus 3% BSA for 1 h on ice, washed three times with cold PBS, incubated with the Alexa488-tagged anti-mouse antibody (1:800) in PBS plus 3% BSA for 45 min on ice. […] The collected cells were centrifuged at 300×g, suspended in PBS plus 3% BSA, and analysed by FACS."}, "human GPR55 [5]": {"tested_on": "human GPR55", "conditions": "ref [38]; cited from earlier work", "text": "GPR55 is overexpressed in several tumour cells, with GPR55 expression shown to correlate with tumour aggressiveness and GPR55 activation to promote cancer-cell proliferation both in cell culture and in xenografts in mice. Therefore, we previously attempted to identify peptides that bind to human GPR55, for innovative targeting of GPR55 for potential therapeutic and/or diagnostic applications. Osteoclasts are also among the cells with the highest expression of GPR55 [9], and as GPR55 is involved in their differentiation, its targeting might be instrument ..."}, "RAW264.7 cells [6]": {"tested_on": "RAW264.7 cells", "assay": "RANKL-induced transcription of osteoclastogenesis markers in RAW264.7 cells (real-time PCR)", "type": "cell-based, murine", "conditions": "150 nM (0.2 µg/mL) peptide, 15 ng/mL RANKL, 72 h", "experimental": "Total RNA was extracted using RNeasy isolation kits, cDNAs were obtained using QuantiTect Reverse Transcription kits, and real-time PCRs were performed with QuantiTect SYBR Green PCR kits (all from Qiagen, Hilden, Germany), according to the manufacturer instructions. The primers used for the real-time PCRs and their annealing temperatures are listed in the Additional file 1: Table S1. Human hypoxanthine phosphoribosyltransferase 1 (HPRT1) or murine β2-microglobulin were followed as housekeeping genes. The real-time PCR programme consisted of an initial 15 min at 95 °C, and then 45 cycles as follows: 94 °C for 15 s, annealing temperature of each primer for 30 s, and 72 °C for 30 s. The real-time PCR machine used was a LightCycler 480 Instrument II (Roche, Indianapolis, IN, USA).\nas §1\nFor the osteoclastogenesis in-vitro assay, RAW264.7 cells were plated in differentiation medium (α-MEM with 10% heat-inactivated FBS, 2 mM L-glutamine, 100 U/mL penicillin, and 100 ug/mL streptomycin) at a density of 5 × 10^3 cells/well in 24-well plates on coverslips for morphological analysis, or at 2 × 10^4 cells/well in six-well plates for RNA extraction. Twenty-four hours later and every 48 h, the medium was replaced and the cells were treated with 15–30 ng/mL RANKL with DMSO and/or PBS as carriers, or with GPR55 antagonists/ agonists (0.5 µM ML-191, 30 µM O1918, 0.5 µM CBD, 0.5 μM CID16020046 1 µM soybean LPI, 1 μM ML-184), or with the peptides (150 nM peptide-P1; or the irrelevant peptide, Irr_P). Twenty-four hours after the last addition, the cells were fixed with 4% paraformaldehyde for morphological analyses or harvested for RNA extraction (see above)."}, "[7]": {"target": "peptide-P1 (synthetic construct)", "conditions": "cited from earlier work"}, "murine GPR55": {"target": "T1, murine GPR55 (Mus musculus, UniProt Q3UJF0)", "T1 construct": "endogenous in cells; host or cells: RAW264.7 mouse macrophages (wild-type, or treated with si-NT / si-GPR55 siRNAs)", "assay": "Peptide binding to intact RAW264.7 cells (FACS)", "conditions": "FITC-Scr; si-GPR55 + siGLO relative to si-NT + siGLO; 40 µg/mL, 15 min, 37 °C", "method": "Wild-type or 48-h-interfered RAW264.7 cells were plated at a density of 1.2 × 10^6 cells/well in six-well plates, and the following day they were used for on-plate-binding assays, or for RNA extraction. Before peptide addition, the cells were washed twice with HBSS^++, and then incubated without or with 40 µg/mL FITC-P1 or FITC-Scr for the indicated times at 37 °C in HBSS^++ plus 0.01% faf-BSA. The incubations were stopped by three washes with PBS, detached by scraping with PBS plus 2 mM EDTA, and then suspended in PBS plus 3% BSA. Fluorescence intensity was evaluated by FACS, and reported as means of cell-associated fluorescence increases compared to cells incubated in absence of peptides.\nTo evaluate peptide-P1 specificity towards murine GPR55, RAW264.7 cells were Gpr55-interfered as above, but the duplexes were previously mixed with the double pmol amount of siGLO Red transfection indicator (Dharmacon). […] FITC-fluorescence intensity was evaluated by FACS, and reported as means of cell-associated fluorescence increases compared to cells incubated in absence of peptides."}, "peptide-P1": {"target": "T2, peptide-P1 (synthetic construct, disulfide 1-9 (inferred))", "T2 chain": "{FITC-Ahx}-CKKNSPTLC", "assay": "FACS binding of FITC-peptide to RAW264.7 cells"}},
  "note": "Like-named read-outs stand apart in the source and are kept apart here. Bridge positions count the residues as written; N and C are the ends. Ends that are not written are not given here. Peptide text beside a SMILES is read from it. * marks the point of attachment. FITC = O=C1OC2(c3ccc(O)cc3Oc3cc(O)ccc32)c2ccc(NC(=S)*)cc21; Ahx = NCCCCCC(=O)O",
  "data": [
    {"molecule": "CC(C)C[C@@H]1NC(=O)[C@H]([C@@H](C)O)NC(=O)[C@@H]2CCCN2C(=O)[C@H](CO)NC(=O)[C@H](CC(N)=O)NC(=O)[C@H](CCCCN)NC(=O)[C@H](CCCCN)NC(=O)[C@@H](NC(=O)CCCCCNC(=S)Nc2ccc3c(c2)C(=O)OC32c3ccc(O)cc3Oc3cc(O)ccc32)CSSC[C@@H](C(=O)O)NC1=O", "note": "[FITC-P1] ({FITC-Ahx}-CKKNSPTLC-OH; disulfide 1-9; N-terminus and C-terminus assumed)", "values": [
      {"measurement": "Kd", "setting": "human GPR55 [1]", "value": 20, "unit": "µM"}
    ]},
    {"molecule": "C[C@H](CCC(=O)O)C[C@H](C)C[C@H](C)C(=O)/C=C(\\O)[C@H](C)C[C@H](C)C/C=C/[C@@H](C)[C@@H](O)[C@@H](C)[C@@H](O)C[C@@H]1CC[C@@](C)([C@H]2CC[C@@](C)([C@@H](C)O)O2)O1", "note": "[ionomycin]", "values": [
      {"measurement": "ERK1/2 and p38 activation", "setting": "[2]", "value": "still activated these pathways"}
    ]},
    {"molecule": "CKKNSPTLC (disulfide 1-9 (inferred)) [peptide-P1]", "values": [
      {"measurement": "inhibition of GPR55-dependent proliferation", "setting": "[3]", "value": "inhibited GPR55-dependent proliferation of two human B-lymphoblastoid cell lines"},
      {"measurement": "inhibition of GPR55-dependent proliferation", "setting": "[3]; listed as Peptide-P1", "value": "inhibit GPR55-dependent proliferation of EHEB and DeFew cells"},
      {"measurement": "effect on RANKL-induced osteoclast syncytium formation, peptide", "setting": "RAW264.7 cells [4]", "value": "did not have any significant effects"},
      {"measurement": "regulation of wild-type and GPR55-K80A mutant internalisation", "setting": "ssGPR55-K80A", "value": "comparable regulation of both wild-type and GPR55-K80A mutant internalisation"},
      {"measurement": "competition with LPI action", "setting": "human GPR55 [5]", "value": "did not compete with LPI action"},
      {"measurement": "human GPR55 internalisation", "setting": "human GPR55 [5]", "value": "inducing human GPR55 internalisation in a β-arrestin–independent manner"},
      {"measurement": "inhibition of osteoclast maturation (five differentiation markers)", "setting": "RAW264.7 cells [6]", "value": "significant inhibition of osteoclast maturation"},
      {"measurement": "reduction of RANKL-induced Cathepsin-k mRNA by peptide", "setting": "RAW264.7 cells [6]; three independent experiments", "value": 40, "unit": "%"},
      {"measurement": "reduction of RANKL-induced Ctr mRNA by peptide", "setting": "RAW264.7 cells [6]; three independent experiments", "value": 35, "unit": "%"},
      {"measurement": "reduction of RANKL-induced Mmp-9 mRNA by peptide", "setting": "RAW264.7 cells [6]; three independent experiments", "value": 50, "unit": "%"},
      {"measurement": "reduction of RANKL-induced Nfatc1 mRNA by peptide", "setting": "RAW264.7 cells [6]; three independent experiments", "value": 30, "unit": "%"},
      {"measurement": "reduction of RANKL-induced Trap mRNA by peptide", "setting": "RAW264.7 cells [6]; three independent experiments", "value": 35, "unit": "%"}
    ]},
    {"molecule": "GPR55 (from UniProt Q9Y2T6)", "values": [
      {"measurement": "Kd", "setting": "[7]", "value": 20, "unit": "µM"}
    ]},
    {"molecule": "KCLTSNCPK (disulfide 2-7 (inferred)) [FITC-Scr, FITC-conjugated scrambled (…) peptide]", "values": [
      {"measurement": "effect of Gpr55 interference on binding", "setting": "murine GPR55", "value": "not significantly affected by Gpr55 interference"}
    ]},
    {"molecule": "GPR55 (protein) MSQPERDNCSFDSVDKLTRTLQLAVHIPTFLLGLVLNLLAIRGFSAFLKKRKLDYIATSIYMINLAVFDLLLVLSLPFKMVLPQVESPLPSFCTLVECLYFISMYGSVFTICFISLDRFLAIQYPILASHLRSPRKTFGICCIIWMLVWIGSIPIYTFHREVERYKCFHNMSDVTWSASVFFPLEIFGFLLPMGIMGFCSYRSIHILLRRPDSTEDWVQQRDTKGWVQKRACIWTIATNLVIFVVSFLPVHLGFFLQYLVRNRFILDCRMKQGISLFLQLSLCFSNINCCLDVFCYYFVIKEFRMRIKAHRPSTIKLVNQDTMVSRG", "values": [
      {"measurement": "Kd", "setting": "peptide-P1", "value": 22.7, "unit": "µM"}
    ]}
  ]
}
